In patent US10870638B2, “Pyridazinone compound or its salt, and herbicide containing it” (ISHIHARA SANGYO KAISHA, LTD., priority 2016, dated 2020):

Key:
Assay type in all cases: in vivo
Details in all cases: active ingredient amount 31 g/ha, 14th day after application
[1] = system: soybean (Glycine max Merr.); test: Test Example 2: soil application on the day after sowing, growth inhibition rate on 14th day
Outline: (§1)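 Upland soil pots; sowing, then next-day soil spraying of compound formulations (1,000 L/ha water) at defined a.i. doses. Day-14 visual rating of inhibition on a 0–100 scale, where 100 means complete kill.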

[2] = system: redroot pigweed (Amaranthus retroflexus L.); test: as above
Outline: as §1

[3] = system: velvetleaf (Abutilon theophrasti MEDIC.); test: as above
Outline: as §1

rice (Oryza sativa L.) [4] = test: as above
Outline: as §1

[5] = system: prickly sida (Sida spinosa L.); test: as above
Outline: as §1

[6] = system: wheat (Triticum aestivum L.); test: as above
Outline: as §1

[7] = system: barnyardgrass (Echinochloa crus-qalli L.); test: as above
Outline: as §1

[8] = system: green foxtail (Setaria viridis L.); test: as above
Outline: as §1

[9] = system: crabgrass (Digitaris sanquinalis L.); test: as above
Outline: as §1

corn (Zea mays L.) [10] = test: as above
Outline: as §1

[11] = system: italian ryegrass (Lolium multiflorum Lam.); test: Test Example 1: foliar treatment, growth inhibition rate on 14th day
Outline: (§2)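 Using a small sprayer, formulated compound in water (0.1 vol % surfactant, 1,000 L/ha) was applied to seedlings grown from seed in upland soil. Fourteen days on, growth state was observed and expressed as percent inhibition from 0 to 100.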

[12] = system: soybean (Glycine max Merr.); test: as above
Outline: (§3)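 Visual 0–100% inhibition scoring (100 = complete kill) at 14 days after foliar treatment of soil-grown seedlings at species-specific leaf stages, with the compound sprayed as a wettable powder or emulsifiable concentrate dilution.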

[13] = system: redroot pigweed (Amaranthus retroflexus L.); test: as above
Outline: as §2

[14] = system: wild oat (Avena fatua L.); test: as above
Outline: as §3

rice (Oryza sativa L.) [15] = test: as above
Outline: as §3

[16] = system: crabgrass (Digitaria sanquinalis L.); test: as above
Outline: as §2

[17] = system: wheat (Triticum aestivum L.); test: as above
Outline: as §2

[18] = system: barnyardgrass (Echinochloa crus-qalli L.); test: as above
Outline: as §2

[19] = system: green foxtail (Setaria viridis L.); test: as above
Outline: as §3

corn (Zea mays L.) [20] = test: as above
Outline: as §2

Structure (SMILES): CCc1nn(C)c(=O)c(-c2cc(Oc3ncc(C(F)(F)F)cc3Cl)ccc2C)c1O [1-98]
- Growth inhibition rate (%) Soybean [1]: 0%
- Growth inhibition rate (%) Redroot pigweed [2]: 0%
- Growth inhibition rate (%) Velvetleaf [3]: 0%
- Growth inhibition rate (%) Rice (rice (Oryza sativa L.) [4]): 35%
- Growth inhibition rate (%) Prickly sida [5]: 0%
- Growth inhibition rate (%) Wheat [6]: 0%
- Growth inhibition rate (%) Barnyardgrass [7]: 95%
- Growth inhibition rate (%) Green foxtail [8]: 30%
- Growth inhibition rate (%) Crabgrass [9]: 20%
- Growth inhibition rate (%) Corn (corn (Zea mays L.) [10]): 0%
- Growth inhibition rate (%) Italian ryegrass [11]: 78%
- Growth inhibition rate (%) Soybean [12]: 10%
- Growth inhibition rate (%) Redroot pigweed [13]: 0%
- Growth inhibition rate (%) Wild oat [14]: 65%
- Growth inhibition rate (%) Rice (rice (Oryza sativa L.) [15]): 0%
- Growth inhibition rate (%) Crabgrass [16]: 30%
- Growth inhibition rate (%) Wheat [17]: 20%
- Growth inhibition rate (%) Barnyardgrass [18]: 88%
- Growth inhibition rate (%) Green foxtail [19]: 60%
- Growth inhibition rate (%) Corn (corn (Zea mays L.) [20]): 80%

Structure (SMILES): COCOc1c(C)nn(C)c(=O)c1-c1cc(Oc2ncc(C(F)(F)F)cc2Cl)ccc1C [1-132]
- Growth inhibition rate (%) Soybean [1]: 0%
- Growth inhibition rate (%) Redroot pigweed [2]: 0%
- Growth inhibition rate (%) Velvetleaf [3]: 0%
- Growth inhibition rate (%) Rice (rice (Oryza sativa L.) [4]): 0%
- Growth inhibition rate (%) Prickly sida [5]: 0%
- Growth inhibition rate (%) Wheat [6]: 0%
- Growth inhibition rate (%) Barnyardgrass [7]: 99%
- Growth inhibition rate (%) Green foxtail [8]: 98%
- Growth inhibition rate (%) Crabgrass [9]: 93%
- Growth inhibition rate (%) Corn (corn (Zea mays L.) [10]): 10%
- Growth inhibition rate (%) Italian ryegrass [11]: 98%
- Growth inhibition rate (%) Soybean [12]: 20%
- Growth inhibition rate (%) Redroot pigweed [13]: 0%
- Growth inhibition rate (%) Wild oat [14]: 98%
- Growth inhibition rate (%) Rice (rice (Oryza sativa L.) [15]): 88%
- Growth inhibition rate (%) Crabgrass [16]: 100%
- Growth inhibition rate (%) Wheat [17]: 98%
- Growth inhibition rate (%) Barnyardgrass [18]: 100%
- Growth inhibition rate (%) Green foxtail [19]: 100%
- Growth inhibition rate (%) Corn (corn (Zea mays L.) [20]): 99%

Structure (SMILES): Cc1nn(C)c(=O)c(-c2cc(Oc3ncc(C(F)(F)F)cc3Cl)ccc2C2CC2)c1O [1-149]
- Growth inhibition rate (%) Soybean [1]: 0%
- Growth inhibition rate (%) Redroot pigweed [2]: 0%
- Growth inhibition rate (%) Velvetleaf [3]: 0%
- Growth inhibition rate (%) Rice (rice (Oryza sativa L.) [4]): 0%
- Growth inhibition rate (%) Prickly sida [5]: 0%
- Growth inhibition rate (%) Wheat [6]: 0%
- Growth inhibition rate (%) Barnyardgrass [7]: 98%
- Growth inhibition rate (%) Green foxtail [8]: 100%
- Growth inhibition rate (%) Crabgrass [9]: 99%
- Growth inhibition rate (%) Corn (corn (Zea mays L.) [10]): 0%
- Growth inhibition rate (%) Italian ryegrass [11]: 83%
- Growth inhibition rate (%) Soybean [12]: 0%
- Growth inhibition rate (%) Redroot pigweed [13]: 10%
- Growth inhibition rate (%) Wild oat [14]: 85%
- Growth inhibition rate (%) Rice (rice (Oryza sativa L.) [15]): 70%
- Growth inhibition rate (%) Crabgrass [16]: 98%
- Growth inhibition rate (%) Wheat [17]: 20%
- Growth inhibition rate (%) Barnyardgrass [18]: 100%
- Growth inhibition rate (%) Green foxtail [19]: 100%
- Growth inhibition rate (%) Corn (corn (Zea mays L.) [20]): 50%

Structure (SMILES): CC(=O)Oc1c(C)nn(C)c(=O)c1-c1cc(Oc2ncc(C(F)(F)F)cc2Cl)ccc1C1CC1 [1-150]
- Growth inhibition rate (%) Soybean [1]: 0%
- Growth inhibition rate (%) Redroot pigweed [2]: 0%
- Growth inhibition rate (%) Velvetleaf [3]: 0%
- Growth inhibition rate (%) Rice (rice (Oryza sativa L.) [4]): 0%
- Growth inhibition rate (%) Prickly sida [5]: 0%
- Growth inhibition rate (%) Wheat [6]: 0%
- Growth inhibition rate (%) Barnyardgrass [7]: 99%
- Growth inhibition rate (%) Green foxtail [8]: 98%
- Growth inhibition rate (%) Crabgrass [9]: 98%
- Growth inhibition rate (%) Corn (corn (Zea mays L.) [10]): 0%
- Growth inhibition rate (%) Italian ryegrass [11]: 100%
- Growth inhibition rate (%) Soybean [12]: 0%
- Growth inhibition rate (%) Redroot pigweed [13]: 0%
- Growth inhibition rate (%) Wild oat [14]: 100%
- Growth inhibition rate (%) Rice (rice (Oryza sativa L.) [15]): 88%
- Growth inhibition rate (%) Crabgrass [16]: 100%
- Growth inhibition rate (%) Wheat [17]: 99%
- Growth inhibition rate (%) Barnyardgrass [18]: 100%
- Growth inhibition rate (%) Green foxtail [19]: 100%
- Growth inhibition rate (%) Corn (corn (Zea mays L.) [20]): 95%

Structure (SMILES): CC(=O)Oc1c(C)nn(C)c(=O)c1-c1cc(Oc2ncc(C(F)(F)F)cc2Cl)c(C)cc1C [1-152]
- Growth inhibition rate (%) Soybean [1]: 10%
- Growth inhibition rate (%) Redroot pigweed [2]: 0%
- Growth inhibition rate (%) Velvetleaf [3]: 0%
- Growth inhibition rate (%) Rice (rice (Oryza sativa L.) [4]): 0%
- Growth inhibition rate (%) Prickly sida [5]: 0%
- Growth inhibition rate (%) Wheat [6]: 0%
- Growth inhibition rate (%) Barnyardgrass [7]: 80%
- Growth inhibition rate (%) Green foxtail [8]: 85%
- Growth inhibition rate (%) Crabgrass [9]: 35%
- Growth inhibition rate (%) Corn (corn (Zea mays L.) [10]): 10%
- Growth inhibition rate (%) Italian ryegrass [11]: 99%
- Growth inhibition rate (%) Soybean [12]: 30%
- Growth inhibition rate (%) Redroot pigweed [13]: 0%
- Growth inhibition rate (%) Wild oat [14]: 100%
- Growth inhibition rate (%) Rice (rice (Oryza sativa L.) [15]): 85%
- Growth inhibition rate (%) Crabgrass [16]: 99%
- Growth inhibition rate (%) Wheat [17]: 88%
- Growth inhibition rate (%) Barnyardgrass [18]: 100%
- Growth inhibition rate (%) Green foxtail [19]: 100%
- Growth inhibition rate (%) Corn (corn (Zea mays L.) [20]): 90%

Structure (SMILES): CCn1ncc(O)c(-c2cc(Oc3ncc(C(F)(F)F)cc3Cl)ccc2C)c1=O [1-157]
- Growth inhibition rate (%) Soybean [1]: 30%
- Growth inhibition rate (%) Redroot pigweed [2]: 0%
- Growth inhibition rate (%) Velvetleaf [3]: 0%
- Growth inhibition rate (%) Rice (rice (Oryza sativa L.) [4]): 40%
- Growth inhibition rate (%) Prickly sida [5]: 0%
- Growth inhibition rate (%) Wheat [6]: 0%
- Growth inhibition rate (%) Barnyardgrass [7]: 100%
- Growth inhibition rate (%) Green foxtail [8]: 100%
- Growth inhibition rate (%) Crabgrass [9]: 99%
- Growth inhibition rate (%) Corn (corn (Zea mays L.) [10]): 0%
- Growth inhibition rate (%) Italian ryegrass [11]: 99%
- Growth inhibition rate (%) Soybean [12]: 20%
- Growth inhibition rate (%) Redroot pigweed [13]: 0%
- Growth inhibition rate (%) Wild oat [14]: 100%
- Growth inhibition rate (%) Rice (rice (Oryza sativa L.) [15]): 80%
- Growth inhibition rate (%) Crabgrass [16]: 100%
- Growth inhibition rate (%) Wheat [17]: 93%
- Growth inhibition rate (%) Barnyardgrass [18]: 100%
- Growth inhibition rate (%) Green foxtail [19]: 100%
- Growth inhibition rate (%) Corn (corn (Zea mays L.) [20]): 100%

Structure (SMILES): Cn1ncc(O)c(-c2cc(Oc3ncc(C(F)(F)F)cc3Cl)ccc2OC(F)(F)F)c1=O [1-162]
- Growth inhibition rate (%) Soybean [1]: 0%
- Growth inhibition rate (%) Redroot pigweed [2]: 0%
- Growth inhibition rate (%) Velvetleaf [3]: 0%
- Growth inhibition rate (%) Rice (rice (Oryza sativa L.) [4]): 95%
- Growth inhibition rate (%) Prickly sida [5]: 0%
- Growth inhibition rate (%) Wheat [6]: 0%
- Growth inhibition rate (%) Barnyardgrass [7]: 100%
- Growth inhibition rate (%) Green foxtail [8]: 100%
- Growth inhibition rate (%) Crabgrass [9]: 100%
- Growth inhibition rate (%) Corn (corn (Zea mays L.) [10]): 40%
- Growth inhibition rate (%) Italian ryegrass [11]: 99%
- Growth inhibition rate (%) Soybean [12]: 0%
- Growth inhibition rate (%) Redroot pigweed [13]: 0%
- Growth inhibition rate (%) Wild oat [14]: 100%
- Growth inhibition rate (%) Rice (rice (Oryza sativa L.) [15]): 93%
- Growth inhibition rate (%) Crabgrass [16]: 100%
- Growth inhibition rate (%) Wheat [17]: 99%
- Growth inhibition rate (%) Barnyardgrass [18]: 100%
- Growth inhibition rate (%) Green foxtail [19]: 100%
- Growth inhibition rate (%) Corn (corn (Zea mays L.) [20]): 98%
